Assays:
human SGLT2 = molecular target: T1, human SGLT2 (Homo sapiens, UniProt P31639, I433V); assay: Assay for inhibitory effect on human SGLT2 activity (uptake of methyl-α-D-glucopyranoside in COS-7 cells transiently expressing human SGLT2); type: cell-based; conditions: uptake of methyl-α-D-(U-14C)-glucopyranoside, 37° C., 2 hours
T1 construct: expressed in transfected cells; host or cells: COS-7 cells (RIKEN CELL BANK RCB0539), transient electroporation with KL29
T1 sequence (P31639 1-672 I433V): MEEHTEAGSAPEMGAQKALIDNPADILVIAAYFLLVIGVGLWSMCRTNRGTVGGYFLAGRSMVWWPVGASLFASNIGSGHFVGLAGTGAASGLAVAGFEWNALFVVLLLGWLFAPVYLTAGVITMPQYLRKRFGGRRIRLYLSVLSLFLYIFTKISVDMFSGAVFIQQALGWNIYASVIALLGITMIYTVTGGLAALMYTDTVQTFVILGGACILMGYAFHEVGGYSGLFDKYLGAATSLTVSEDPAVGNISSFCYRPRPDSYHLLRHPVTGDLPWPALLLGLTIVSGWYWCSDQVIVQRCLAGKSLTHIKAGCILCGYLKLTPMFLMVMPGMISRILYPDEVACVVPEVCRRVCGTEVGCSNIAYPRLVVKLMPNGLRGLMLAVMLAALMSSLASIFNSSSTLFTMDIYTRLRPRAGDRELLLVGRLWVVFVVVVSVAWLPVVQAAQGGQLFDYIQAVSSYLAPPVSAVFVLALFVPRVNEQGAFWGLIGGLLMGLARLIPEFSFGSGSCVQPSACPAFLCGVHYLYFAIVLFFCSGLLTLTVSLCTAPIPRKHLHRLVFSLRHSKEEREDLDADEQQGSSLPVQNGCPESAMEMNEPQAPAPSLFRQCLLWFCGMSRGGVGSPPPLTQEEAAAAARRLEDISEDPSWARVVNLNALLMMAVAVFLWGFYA
Procedure: Assay for Inhibitory Effect on Human SGLT2 Activity
1) Construction of the Plasmid Vector Expressing Human SGLT2
Preparation of the cDNA library for PCR amplification was performed by reverse transcription of a total RNA deprived from human kidney (Ori gene) with oligo dT as the primer, using […] Preamplification System (Gibco-BRL: LIFE TECHNOLOGIES). The DNA fragment coding for human SGLT2 was amplified by the PCR reaction, in which the human kidney cDNA library described above was used as the template and the following oligo nucleotides 0702F and 0712R, presented as Sequence Number 1 and 2 respectively, were used as the primers. The amplified DNA fragment was ligated into pCR-Blunt (Invitrogen), a vector for cloning, according to standard method of the kit. The Escherichia coli HB101 (Toyobo) was transformed according to usual method and then selection of the transformants was performed on the LB agar medium containing 50 μg/mL of kanamycin. After the plasmid DNA was extracted and purified from the one of the transformants, amplifying of the DNA fragment coding for human SGLT2 was performed by the PCR reaction, in which the following oligo nucleotides 0714F and 0715R, presented as Sequence Number 3 and 4 respectively, were used as the primers. The amplified DNA fragment was digested with restriction enzymes, Xho I and Hind III, and then purified with Wizard Purification System (Promega). This purified DNA fragment was inserted at the corresponding restriction sites of pcDNA3.1 (−) Myc/His-B (Invitrogen), a vector for expressing of fusion protein. The Escherichia coli HB101 was transformed according to usual method and then selection of the transformant was performed on the LB agar medium containing 100 μg/mL of ampicillin. After the plasmid DNA was extracted and purified from this transformant, the base sequence of the DNA fragment inserted at the multi-cloning sites of pcDNA3.1 (−) Myc/His-B was analyzed. […] Sequentially, a clone in which valine is substituted for the isoleucine-433 was obtained. This plasmid vector expressing human SGLT2 in which the peptide presented as Sequence Number 5 is fused to the carboxyl terminal alanine residue was designated KL29.
2) Preparation of the Cells Expressing Transiently Human SGLT2
KL29, the plasmid coding human SGLT2, was transfected into COS-7 cells (RIKEN CELL BANK RCB0539) by electroporation. Electroporation was performed with GENE PULSER II (Bio-Rad Laboratories) under the condition: 0.290 kV, 975 μF, 2×10^6 cells of COS-7 cell and 20 μg of KL29 in 500 μL of OPTI-MEM I medium (Gibco-BRL: LIFE TECHNOLOGIES) in the 0.4 cm type cuvette. After the gene transfer, the cells were harvested by centrifugation and resuspended with OPTI-MEM I medium (1 mL/cuvette). To each well in 96-wells plate, 125 μL of this cell suspension was added. After overnight culture at 37° C. under 5% CO2, 125 μL of DMEM medium which is containing 10% of fetal bovine serum (Sanko Jyunyaku), 100 units/mL sodium penicillin G (Gibco-BRL: LIFE TECHNOLOGIES), 100 μg/mL streptomycin sulfate (Gibco-BRL: LIFE TECHNOLOGIES) was added to each well. After a culture until the following day, these cells were used for the measurement of the inhibitory activity against the uptake of methyl-α-D-glucopyranoside.
3) Measurement of the Inhibitory Activity Against the Uptake of methyl-α-D-glucopyranoside […]

ICR mice = assay: Acute toxicity test; type: in vivo; conditions: male ICR mice, 300 mg/kg subcutaneous, 5 animals in each group, observation for 24 hours
Procedure: A mixture (saline:polyethylene glycol 400:ethanol=5:4:1) was added to a test compound to prepare 30 mg/mL solution. As experimental animals, 5 week old male ICR mice (CLEA JAPAN, INC. 29-35 g, 5 animals in each group), which were fasted for 4 hours, were used. The above solution was subcutaneously administered at a dose of 10 mL/kg (300 mg/kg) to the above experimental animals and then observation for 24 hours was performed.

SD rats = assay: Assay for the facilitatory effect on urinary glucose excretion; type: in vivo, rat; conditions: male SD rats, oral glucose 2 g/kg, urine collected 24 hours
Procedure: Assay for the Facilitatory Effect on Urinary Glucose Excretion
As experimental animals, overnight fasted SD rats (Japan SLC. Inc., male, 7 weeks of age, 180-220 g) were used. Ten mg of a test compound was suspended or dissolved in 300 μL of ethanol and dissolved by adding 1.2 mL of polyethylene glycol 400 and 1.5 mL of saline to prepare a 3.3 mg/mL solution. A portion of this solution was diluted with a mixture (saline:polyethylene glycol 400:ethanol=5:4:1) to prepare 3.3, 0.33 and 0.033 mg/mL solution. After body weights of the rats were measured, the solution of test compound was intravenously injected to the tail vein at a dose of 3 mL/kg (10, 1, 0.1 mg/kg). For control, only a mixture (saline:polyethylene glycol 400:ethanol=5:4:1) was intravenously injected to the tail vein at a dose of 3 mL/kg. Immediately after intravenous injection to the tail vein, 200 g/L of aqueous glucose solution was orally administered to the rats at a dose of 10 mL/kg (2 g/kg). The intravenous injection to the tail vein was performed with 26 G injection needle and 1 mL syringe. The oral administration was performed with gastric tube for rat and 2.5 mL syringe. The head count in each group was 3. Collection of urine was performed in metabolic cage after the administration of glucose was finished. The sampling time for collection of urine was 24 hours after the administration of glucose. After the collection of urine was finished, the urine volume was recorded and the urinary glucose concentration was measured. The glucose concentration was measured with a kit for laboratory test: Glucose B-Test WAKO (Wako Pure Chemical Industries, Ltd.). The amount of urinary glucose excretion during 24 hours per 200 g of body weight was calculated from the urine volume, urinary glucose concentration and body weight.

Compound	IC50 (human SGLT2)	Death number (ICR mice)	Amount of Urinary Glucose Excretion (SD rats; 0.1 mg/kg intravenous)	Amount of Urinary Glucose Excretion (SD rats; 1 mg/kg intravenous)	Amount of Urinary Glucose Excretion (SD rats; 10 mg/kg intravenous)
OC/C=C/c1ccc(Cc2ccccc2O[C@@H]2O[C@H](CO)[C@@H](O)[C@H](O)[C@H]2O)cc1 [Example 19, (E)-2-[4-(3-hydroxy-1-prop-1-ene-1-yl)benzyl]phenyl β-D-glucopyranoside]	0.12 µM	–	–	–	–
CCc1ccc(Cc2ccc(N)cc2O[C@@H]2O[C@H](CO)[C@@H](O)[C@H](O)[C@H]2O)cc1 [Example 29, 5-Amino-2-(4-ethylbenzyl)phenyl β-D-glucopyranoside]	0.01 µM	–	–	–	–
Cc1cc(C)c(Cc2ccc(CCCO)cc2)c(O[C@@H]2O[C@H](CO)[C@@H](O)[C@H](O)[C@H]2O)c1 [Example 30, 2-[4-(3-Hydroxypropyl)benzyl]-3,5-dimethylphenyl β-D-glucopyranoside]	0.03 µM	–	–	–	–
Cc1cc(C)c(Cc2ccc(CCO)cc2)c(O[C@@H]2O[C@H](CO)[C@@H](O)[C@H](O)[C@H]2O)c1 [Example 31, 2-[4-(2-Hydroxyethyl)benzyl]-3,5-dimethylphenyl β-D-glucopyranoside]	0.059 µM	–	–	–	–
COc1ccc(Cc2c(C)cc(C)cc2O[C@@H]2O[C@H](CO)[C@@H](O)[C@H](O)[C@H]2O)cc1 [Example 37, 2-(4-Methoxybenzyl)-3,5-dimethylphenyl β-D-glucopyranoside]	0.29 µM	0/5	15 mg/24 hours/200 g body weight	125 mg/24 hours/200 g body weight	288 mg/24 hours/200 g body weight

Reference: patent publication US20050113315A1, “Glucopyranosyloxybenzylbenzene derivatives, medicinal compositions containing the same and intermediates in the production thereof” (KISSEI PHARMACEUTICAL CO., LTD., priority 2000, published 2005)
